Laboratory results taken from patent US8273754B2, “Substituted 1H-pyrazolo[3,4-D]pyrimidine-6-amine compounds” (ArQule, Inc., priority 2008, dated 2012).
Like-named read-outs stand apart in the source and are kept apart here.

System: cancer cells
Test: MTS cell growth inhibition assay (72 hours)
Type: cell-based
Experimental: Cells were maintained at 37° C., 5% CO2 in DMEM media supplemented with 1% fetal bovine serum, penicillin/streptomycin and fungizone (Invitrogen). Cells were seeded into 96-well tissue culture plates at 3000 per well and cultured at 37° C. for 18 hours. Test compounds were dissolved and diluted to 300× in DMSO then further diluted 1:40 in DMEM before addition to cells (1:7.5 dilution). Cells were incubated with test compounds for 72 hours followed by incubation with tetrazolium compound (3-(4,5-dimethylthiazol-2-yl)-5-(3-carboxymethoxyphenyl)-2-(4-sulfophenyl)-2H-tetrazolium, inner salt; MTS) and the electron coupling reagent, phenazine methosulfate (PMS) for 4 hours. […] The ability of compounds to inhibit cell growth in this assay is correlated with the reduction of dehydrogenase enzyme activity found in metabolically active cells. The measurement of the absorbance of the formazan was assessed using an ENVISION™ (Perkin Elmer) microplate reader at 492 nm. The calculated IC50 value is the concentration of the test compound that causes a 50% decrease in the absorbance. […] A=>79% inhibition, B=>50 to 79% inhibition, C=<50% inhibition.

[1] = Homo sapiens, DLD-1, 72 h, DLD-1 cells, read-out: DLD-1 MTS 72 hr at 10 μM
[2] = Homo sapiens, KATO III, 72 h, KATO III cells, read-out: KATO III MTS 72 hr at 10 μM
[3] = Homo sapiens, MDA-MB-231, 72 h, MDA-MB-231 cells, read-out: MDA-MB-231 MTS 72 hr at 10 μM
[4] = Homo sapiens, NCI-H1299, 72 h, NCI-H1299 cells, read-out: NCI-H1299 MTS 72 hr at 10 μM
[5] = PaCa-2, 72 h, PACA-2 cells, read-out: PACA-2 MTS 72 hr at 10 μM

SMILES	inhibition at 10 µM [1] [%]	inhibition at 10 µM [2] [%]	inhibition at 10 µM [3] [%]	inhibition at 10 µM [4] [%]	inhibition at 10 µM [5] [%]
Nc1nc(NC2Cc3ccccc3N(S(=O)(=O)c3ccc(-c4ccc(Cl)cc4)cc3)C2)c2cn[nH]c2n1 (stereo not drawn) [Compound 75, N4-(1-(4′-chlorobiphenyl-4-ylsulfonyl)-1,2,3,4-tetrahydroquinolin-3-yl)-1H-pyrazolo[3,4-d]pyrimidine-4,6-diamine]	> 79	> 79	> 79	50 to 79	> 79
Nc1nc(NC2Cc3ccccc3N(S(=O)(=O)c3ccc4c(c3)OCCO4)C2)c2cn[nH]c2n1 (stereo not drawn) [Compound 76, N4-(1-(2,3-dihydrobenzo[b][1,4]dioxin-6-ylsulfonyl)-1,2,3,4-tetrahydroquinolin-3-yl)-1H-pyrazolo[3,4-d]pyrimidine-4,6-diamine]	< 50	< 50	< 50	< 50	50 to 79
COc1ccccc1Oc1cccc(S(=O)(=O)N2CC(Nc3nc(N)nc4[nH]ncc34)Cc3ccccc32)c1 (stereo not drawn) [Compound 77, N4-(1-(3-(2-methoxyphenoxy)phenylsulfonyl)-1,2,3,4-tetrahydroquinolin-3-yl)-1H-pyrazolo[3,4-d]pyrimidine-4,6-diamine]	< 50	50 to 79	< 50	< 50	< 50
Nc1nc(NC2Cc3ccccc3N(S(=O)(=O)c3cccc(Cl)c3F)C2)c2cn[nH]c2n1 (stereo not drawn) [Compound 78, N4-(1-(3-chloro-2-fluorophenylsulfonyl)-1,2,3,4-tetrahydroquinolin-3-yl)-1H-pyrazolo[3,4-d]pyrimidine-4,6-diamine]	< 50	< 50	< 50	< 50	< 50
Nc1nc(NC2Cc3ccccc3N(C(=O)c3cccs3)C2)c2cn[nH]c2n1 (stereo not drawn) [Compound 79, (3-(6-amino-1H-pyrazolo[3,4-d]pyrimidin-4-ylamino)-3,4-dihydroquinolin-1(2H)-yl)(thiophen-2-yl)methanone]	> 79	> 79	50 to 79	< 50	> 79
Nc1nc(NC2Cc3ccccc3N(C(=O)C3CC3)C2)c2cn[nH]c2n1 (stereo not drawn) [Compound 80, (3-(6-amino-1H-pyrazolo[3,4-d]pyrimidin-4-ylamino)-3,4-dihydroquinolin-1(2H)-yl)(cyclopropyl)methanone]	< 50	< 50	< 50	< 50	< 50
Nc1nc(NC2Cc3ccccc3N(C(=O)c3ccccc3Br)C2)c2cn[nH]c2n1 (stereo not drawn) [Compound 81, (3-(6-amino-1H-pyrazolo[3,4-d]pyrimidin-4-ylamino)-3,4-dihydroquinolin-1(2H)-yl)(2-bromophenyl)methanone]	50 to 79	> 79	> 79	< 50	50 to 79
Cc1cccc(C(=O)N2CC(Nc3nc(N)nc4[nH]ncc34)Cc3ccccc32)c1 (stereo not drawn) [Compound 82, (3-(6-amino-1H-pyrazolo[3,4-d]pyrimidin-4-ylamino)-3,4-dihydroquinolin-1(2H)-yl)(m-tolyl)methanone]	< 50	< 50	< 50	< 50	< 50
Nc1nc(NC2Cc3ccccc3N(C(=O)C(=O)c3c[nH]c4ccccc34)C2)c2cn[nH]c2n1 (stereo not drawn) [Compound 83, 1-(3-(6-amino-1H-pyrazolo[3,4-d]pyrimidin-4-ylamino)-3,4-dihydroquinolin-1(2H)-yl)-2-(1H-indol-3-yl)ethane-1,2-dione]	< 50	< 50	< 50	< 50	< 50
Nc1nc(NC2Cc3ccccc3N(C(=O)C3CCCCC3)C2)c2cn[nH]c2n1 (stereo not drawn) [Compound 84, (3-(6-amino-1H-pyrazolo[3,4-d]pyrimidin-4-ylamino)-3,4-dihydroquinolin-1(2H)-yl)(cyclohexyl)methanone]	< 50	< 50	< 50	< 50	< 50
Nc1nc(NC2Cc3ccccc3N(C(=O)COc3ccccc3)C2)c2cn[nH]c2n1 (stereo not drawn) [Compound 85, 1-(3-(6-amino-1H-pyrazolo[3,4-d]pyrimidin-4-ylamino)-3,4-dihydroquinolin-1(2H)-yl)-2-phenoxyethanone]	< 50	< 50	< 50	< 50	< 50
Nc1nc(NC2Cc3ccccc3N(C(=O)c3ccc(F)cc3F)C2)c2cn[nH]c2n1 (stereo not drawn) [Compound 86, (3-(6-amino-1H-pyrazolo[3,4-d]pyrimidin-4-ylamino)-3,4-dihydroquinolin-1(2H)-yl)(2,4-difluorophenyl)methanone]	< 50	< 50	< 50	< 50	< 50
Nc1nc(NC2Cc3ccccc3N(C(=O)Cc3ccccc3)C2)c2cn[nH]c2n1 (stereo not drawn) [Compound 87, 1-(3-(6-amino-1H-pyrazolo[3,4-d]pyrimidin-4-ylamino)-3,4-dihydroquinolin-1(2H)-yl)-2-phenylethanone]	< 50	< 50	< 50	< 50	< 50
CCCCCCc1ccc(C(=O)N2CC(Nc3nc(N)nc4[nH]ncc34)Cc3ccccc32)cc1 (stereo not drawn) [Compound 88, (3-(6-amino-1H-pyrazolo[3,4-d]pyrimidin-4-ylamino)-3,4-dihydroquinolin-1(2H)-yl)(4-hexylphenyl)methanone]	50 to 79	< 50	< 50	< 50	< 50
Nc1nc(NC2Cc3ccccc3N(C(=O)c3c(F)cc(F)cc3F)C2)c2cn[nH]c2n1 (stereo not drawn) [Compound 89, (3-(6-amino-1H-pyrazolo[3,4-d]pyrimidin-4-ylamino)-3,4-dihydroquinolin-1(2H)-yl)(2,4,6-trifluorophenyl)methanone]	< 50	< 50	< 50	< 50	< 50
Nc1nc(NC2Cc3ccccc3N(C(=O)c3cc(Cl)cc(Cl)c3)C2)c2cn[nH]c2n1 (stereo not drawn) [Compound 90, (3-(6-amino-1H-pyrazolo[3,4-d]pyrimidin-4-ylamino)-3,4-dihydroquinolin-1(2H)-yl)(3,5-dichlorophenyl)methanone]	> 79	> 79	> 79	> 79	> 79
Cc1c(C(=O)N2CC(Nc3nc(N)nc4[nH]ncc34)Cc3ccccc32)oc2ccccc12 (stereo not drawn) [Compound 91, (3-(6-amino-1H-pyrazolo[3,4-d]pyrimidin-4-ylamino)-3,4-dihydroquinolin-1(2H)-yl)(3-methylbenzofuran-2-yl)methanone]	50 to 79	> 79	> 79	< 50	> 79
Nc1nc(NC2Cc3ccccc3N(C(=O)c3cc(F)cc(F)c3F)C2)c2cn[nH]c2n1 (stereo not drawn) [Compound 92, (3-(6-amino-1H-pyrazolo[3,4-d]pyrimidin-4-ylamino)-3,4-dihydroquinolin-1(2H)-yl)(2,3,5-trifluorophenyl)methanone]	> 79	> 79	> 79	50 to 79	> 79
Nc1nc(NC2Cc3ccccc3N(C(=O)COc3cccc(Cl)c3)C2)c2cn[nH]c2n1 (stereo not drawn) [Compound 93, 1-(3-(6-amino-1H-pyrazolo[3,4-d]pyrimidin-4-ylamino)-3,4-dihydroquinolin-1(2H)-yl)-2-(3-chlorophenoxy)ethanone]	< 50	< 50	< 50	< 50	< 50
CC(C)(C)CC(=O)N1CC(Nc2nc(N)nc3[nH]ncc23)Cc2ccccc21 (stereo not drawn) [Compound 94, 1-(3-(6-amino-1H-pyrazolo[3,4-d]pyrimidin-4-ylamino)-3,4-dihydroquinolin-1(2H)-yl)-3,3-dimethylbutan-1-one]	< 50	< 50	< 50	< 50	< 50
COc1ccc(CC(=O)N2CC(Nc3nc(N)nc4[nH]ncc34)Cc3ccccc32)cc1OC (stereo not drawn) [Compound 95, 1-(3-(6-amino-1H-pyrazolo[3,4-d]pyrimidin-4-ylamino)-3,4-dihydroquinolin-1(2H)-yl)-2-(3,4-dimethoxyphenyl)ethanone]	< 50	< 50	< 50	< 50	< 50
